The conditions of data set [1]: as indicated in WO2010093944; cited from earlier work.
Data set [2] can be described thus: Solubility in aqueous buffers, shaker at 37° C., filtrate by UHPLC. It is filed as physicochemical. Particulars: for Concentration mg/mL (UHPLC) / solubility thermodynamic at 2 h: 150 mg/8 mL suspension; for solubility thermodynamic at 2 h: 37 °C, thermodynamic from solid, read-out: Concentration mg/mL (UHPLC); for Solubility compared with crystalline form A / Solubility compared with non-crystalline (amorphous) form B: in words. The protocol:
UHPLC analyses was performed on Agilent 1290 Infinity LC system with a DAD. UV spectra were recorded at 190-400 nm, with the working wavelength of 240 nm. The column used was Waters Acquity UPLC BEH Phenyl (100 mm×2.1 mm i.d., particle size 1.7 μm), at the column temperature of 50° C. Mobile phases employed for gradient elution were water with 0.1% of formic acid as mobile phase A and acetonitrile with 0.1% of formic acid as mobile phase B. Gradient conditions for the analysis were: isocratic flow from 0.0 to 0.5 min with 40% of mobile phase B; linear gradient from 40% of mobile phase B up to 90% of mobile phase B from 0.5 to 4.0 min; isocratic flow at 90% of mobile phase B from 4.0 to 4.5 min; linear gradient down to 40% of mobile phase B from 4.5 to 5.0 min and finally, reconditioning the column for 0.5 min on starting conditions. 1 μL to 10 μL of sample solution was injected at a flow rate of 0.7 mL min^−1.
Solubility of Bardoxolone methyl form D and the patent forms in U.S. Pat. Nos. 8,309,601 and 8,088,824 were determined in aqueous buffers and water. Suspension of tested substance (150 mg/8 mL) was stirred on a shaker (200 rpm) in a closed vial at 37° C. Suspension was filtered and concentration of Bardoxolone methyl in filtrate was determined by UHPLC. Undissolved residue was analyzed by XRPD.

The nature of data set [3]: Physical stability of Form D (pressure, heating, sauna), form checked by XRPD. It counts as physicochemical. To be noted: for XRD form after transformation by sauna (closed flask, RT): 1 day; for XRD form after pressure: 1 min. On the procedure: Crystalline Form D of Bardoxolone is also stable to conversion after exposure to an atmosphere containing organic solvents, for example ethylene glycol, in a closed vessel at room temperature for 24 hours). Such stability may enable the use of form D in variety of preparation methods including preparation of solid dispersion by spray drying, wet granulation etc.
Sample after being powdered in a mortar and pestle is applied directly on a silicon plate holder. The X-ray powder diffraction pattern was measured with Philips X'Pert PRO X-ray powder diffractometer, equipped with Cu irradiation source=1.54184 Å (Ångström), X'Celerator (2.022° 2θ) detector.
The physical stability of Form D was investigated at different conditions: in heating, under pressure and by sauna.

The mark [4] stands for this setting: buffer pH 1.2 (0.063M HCl + 2.0 g/L NaCl), 2 h at 37° C.
[5] abbreviates: buffer pH 4.5 (0.05M acetate buffer PhEur), 2 h at 37° C.

Values after ≈ are worked out from the molar mass of the structure shown. “Also recorded” adds a separate entry of the source. Read-outs that look alike come from different tables or passages of the source.

On to `COC(=O)[C@]12CCC(C)(C)C[C@H]1[C@H]1C(=O)C=C3[C@]4(C)C=C(C#N)C(=O)C(C)(C)[C@@H]4CC[C@@]3(C)[C@]1(C)CC2` [Form A, Methyl-2-cyano-3,12-dioxooleana-1,9(11)-dien-28-oic acid, reference compound], for which the “Oral bioavailability (in words)” value in data set [1] is “relatively low oral bioavailability”. The “Concentration mg/mL (UHPLC)” value in data set [2] (setting [4]) is “LTQL”; in data set [2] (buffer pH 1.2 (0.063M HCl + 2.0 g/L NaCl), 4 h at 37° C.) it was “LTQL”; in data set [2] (setting [5]) it was “LTQL”.

As for `COC(=O)[C@]12CCC(C)(C)C[C@H]1[C@H]1C(=O)C=C3[C@]4(C)C=C(C#N)C(=O)C(C)(C)[C@@H]4CC[C@@]3(C)[C@]1(C)CC2` [Form B, Methyl-2-cyano-3,12-dioxooleana-1,9(11)-dien-28-oic acid, reference compound], the “Oral bioavailability (in words)” value in data set [1] is reported as “markedly superior oral bioavailability compared to Form A”. The solubility thermodynamic at 2 h in data set [2] (HCl/NaCl buffer, pH 1.2, simulated gastric fluid, buffer pH 1.2 (0.063M HCl + 2.0 g/L NaCl), 2 h at 37° C.) was 0.08 µg/mL; in data set [2] (acetate buffer, pH 4.5, aqueous buffer, buffer pH 4.5 (0.05M acetate buffer PhEur), 2 h at 37° C.) it was 0.04 µg/mL (≈ 0.0791 µM).

Turning to `COC(=O)[C@]12CCC(C)(C)C[C@H]1[C@H]1C(=O)C=C3[C@]4(C)C=C(C#N)C(=O)C(C)(C)[C@@H]4CC[C@@]3(C)[C@]1(C)CC2` [Form D, Methyl-2-cyano-3,12-dioxooleana-1,9(11)-dien-28-oic acid], the “XRD form after heating (open vessel)” value in data set [3] (100° C., 5 min) is reported as “Form D”. Besides, the “XRD form after transformation by sauna (closed flask, RT)” value in data set [3] (ethylene glycol) and in data set [3] (water) was “Form D” throughout. Further, the “Polymorphic stability, conversion to other forms (in words)” value in data set [3] (pressure 1 t or 2 t 1 min, 100° C. 5 min, water sauna RT 90%-100% RH 24 hours, ethylene glycol atmosphere RT 24 hours) was “maintained; also recorded: resistant to conversion to any other forms”. Further, the “XRD form after pressure” value in data set [3] (pressure 1 t) and in data set [3] (pressure 2 t) was “Form D” in each case. Besides, the “Concentration mg/mL (UHPLC)” value in data set [2] (setting [4]) is recorded as 0.00004 mg/mL; in data set [2] (setting [5]) it was 0.00002 mg/mL. The “Solubility compared with crystalline form A” value is “improved solubility” in data set [2] and “higher” in data set [2] (listed as form D). In addition, the “Solubility compared with non-crystalline (amorphous) form B” value in data set [2] is reported as “comparable solubility”; in data set [2] (listed as form D) it was “comparable”.

Values taken from patent US11427533B2, “Crystalline polymorphs of bardoxolone methyl” (PLIVA HRVATSKA d.o.o., priority 2017, dated 2022).
